What was measured:
[1] = biological target: Mitogen-activated protein kinase kinase kinase kinase 2 (Homo sapiens) (UniProt Q12851); test: Inhibition of MAP4K2 at 10 uM; settings: values are per cent of control
[2] = biological target: LIM domain kinase 2 (Homo sapiens) (UniProt P53671); test: Inhibition of LIMK2 at 10 uM; settings: values are per cent of control
[3] = system: Phosphatidylinositol 4,5-bisphosphate 3-kinase catalytic subunit alpha isoform (Homo sapiens), P42336 [E545A]; test: Inhibition of PIK3CA E545A mutant at 10 uM
Phosphatidylinositol 4,5-bisphosphate 3-kinase catalytic subunit alpha isoform (Homo sapiens), P42336 [E545A], sequence (P42336 whole entry E545A, canonical isoform): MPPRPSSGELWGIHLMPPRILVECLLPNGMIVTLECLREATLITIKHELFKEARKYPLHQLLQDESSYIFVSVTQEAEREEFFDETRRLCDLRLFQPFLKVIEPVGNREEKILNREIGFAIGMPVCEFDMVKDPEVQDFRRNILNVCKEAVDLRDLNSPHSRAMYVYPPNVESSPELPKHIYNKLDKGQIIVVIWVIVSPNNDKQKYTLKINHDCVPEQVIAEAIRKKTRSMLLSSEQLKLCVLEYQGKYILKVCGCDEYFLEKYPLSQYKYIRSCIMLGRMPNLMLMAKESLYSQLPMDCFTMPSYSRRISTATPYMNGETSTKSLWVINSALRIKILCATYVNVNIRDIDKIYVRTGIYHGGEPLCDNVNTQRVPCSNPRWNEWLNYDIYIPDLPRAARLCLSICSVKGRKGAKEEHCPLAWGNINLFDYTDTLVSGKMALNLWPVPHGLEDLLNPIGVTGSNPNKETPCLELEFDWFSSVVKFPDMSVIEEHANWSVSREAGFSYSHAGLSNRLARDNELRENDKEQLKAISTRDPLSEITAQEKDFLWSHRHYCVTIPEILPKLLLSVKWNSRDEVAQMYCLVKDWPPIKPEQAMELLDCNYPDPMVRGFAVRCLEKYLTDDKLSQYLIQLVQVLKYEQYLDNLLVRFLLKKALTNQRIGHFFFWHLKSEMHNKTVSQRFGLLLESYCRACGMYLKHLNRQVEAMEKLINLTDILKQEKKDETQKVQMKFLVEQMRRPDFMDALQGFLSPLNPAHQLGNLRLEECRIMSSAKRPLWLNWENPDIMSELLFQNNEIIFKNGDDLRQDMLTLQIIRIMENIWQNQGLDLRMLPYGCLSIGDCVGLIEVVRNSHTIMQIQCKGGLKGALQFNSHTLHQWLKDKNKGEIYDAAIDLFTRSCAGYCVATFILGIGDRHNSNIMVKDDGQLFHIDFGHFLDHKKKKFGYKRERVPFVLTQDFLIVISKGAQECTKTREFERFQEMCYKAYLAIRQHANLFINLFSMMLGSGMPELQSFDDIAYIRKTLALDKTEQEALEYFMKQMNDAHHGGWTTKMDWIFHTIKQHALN

[4] = biological target: Serine/threonine-protein kinase PLK4 (Homo sapiens) (UniProt O00444); test: Inhibition of PLK4 at 10 uM
[5] = biological target: MAP kinase-interacting serine/threonine-protein kinase 1 (Homo sapiens) (UniProt Q9BUB5); test: Inhibition of MKNK1 at 10 uM
[6] = biological target: Serine/threonine-protein kinase 35 (Homo sapiens) (UniProt Q8TDR2); test: Inhibition of STK35 at 10 uM
[7] = system: Receptor-type tyrosine-protein kinase FLT3 (Homo sapiens), P36888 [D835Y]; test: Inhibition of FLT3 D835Y mutant at 10 uM; settings: values are per cent of control
[8] = biological target: Phosphatidylinositol 4-phosphate 5-kinase type-1 gamma (Homo sapiens) (UniProt O60331); test: Inhibition of PIP5K1C at 10 uM
[9] = biological target: Microtubule-associated serine/threonine-protein kinase 1 (Homo sapiens) (UniProt Q9Y2H9); test: Inhibition of MAST1 at 10 uM; settings: values are per cent of control
[10] = biological target: Aurora kinase A (Homo sapiens) (UniProt O14965); test: Inhibition of AURKA at 10 uM; settings: values are per cent of control
[11] = system: Tyrosine-protein kinase ABL1 (Homo sapiens), P00519 [F317I]; test: Inhibition of non phosphorylated ABL1 F317I mutant at 10 uM; settings: values are per cent of control
[12] = biological target: Serine/threonine-protein kinase LATS1 (Homo sapiens) (UniProt O95835); test: Inhibition of LATS1 at 10 uM; values are per cent of control
[13] = biological target: Tyrosine-protein kinase Fyn (Homo sapiens) (UniProt P06241); test: Inhibition of FYN at 10 uM; values are per cent of control
[14] = system: Phosphatidylinositol 4,5-bisphosphate 3-kinase catalytic subunit alpha isoform (Homo sapiens), P42336 [H1047Y]; test: Inhibition of PIK3CA H1047Y mutant at 10 uM
Phosphatidylinositol 4,5-bisphosphate 3-kinase catalytic subunit alpha isoform (Homo sapiens), P42336 [H1047Y], sequence (P42336 whole entry H1047Y, canonical isoform): as the sequence (P42336 whole entry E545A, canonical isoform) above, with A545E, H1047Y counted along it

[15] = biological target: TGF-beta receptor type-2 (Homo sapiens) (UniProt P37173); test: Inhibition of TGFBR2 at 10 uM
[16] = biological target: Serine/threonine-protein kinase Nek11 (Homo sapiens) (UniProt Q8NG66); test: Inhibition of NEK11 at 10 uM
[17] = biological target: Phosphatidylinositol 4-phosphate 5-kinase type-1 alpha (Homo sapiens) (UniProt Q99755); test: Inhibition of PIP5K1A at 10 uM
[18] = biological target: Epithelial discoidin domain-containing receptor 1 (Homo sapiens) (UniProt Q08345); test: Inhibition of DDR1 at 10 uM; values are per cent of control
[19] = biological target: Receptor-interacting serine/threonine-protein kinase 1 (Homo sapiens) (UniProt Q13546); test: Inhibition of RIPK1 at 10 uM; settings: values are per cent of control
[20] = biological target: Cyclin-dependent kinase 11A (Homo sapiens) (UniProt Q9UQ88); test: Inhibition of CDC2L2 at 10 uM; settings: values are per cent of control
[21] = biological target: Tyrosine-protein kinase JAK1 (Homo sapiens) (UniProt P23458); test: Inhibition of JAK1 JH2 pseudokinase domain at 10 uM; values are per cent of control
[22] = biological target: Serine/threonine-protein kinase pim-2 (Homo sapiens) (UniProt Q9P1W9); test: Inhibition of PIM2 at 10 uM
[23] = biological target: Tyrosine-protein kinase ITK/TSK (Homo sapiens) (UniProt Q08881); test: Inhibition of ITK at 10 uM; values are per cent of control
[24] = system: Epidermal growth factor receptor (Homo sapiens), P00533 [G719S]; test: Inhibition of EGFR G719S mutant at 10 uM; values are per cent of control
[25] = biological target: Serine/threonine-protein kinase NLK (Homo sapiens) (UniProt Q9UBE8); test: Inhibition of NLK at 10 uM
[26] = biological target: Cyclin-dependent kinase 16 (Homo sapiens) (UniProt Q00536); test: Inhibition of PCTK1 at 10 uM; settings: values are per cent of control
Cyclin-dependent kinase 16 (Homo sapiens), sequence (Q00536 whole entry, the tested form may be a part): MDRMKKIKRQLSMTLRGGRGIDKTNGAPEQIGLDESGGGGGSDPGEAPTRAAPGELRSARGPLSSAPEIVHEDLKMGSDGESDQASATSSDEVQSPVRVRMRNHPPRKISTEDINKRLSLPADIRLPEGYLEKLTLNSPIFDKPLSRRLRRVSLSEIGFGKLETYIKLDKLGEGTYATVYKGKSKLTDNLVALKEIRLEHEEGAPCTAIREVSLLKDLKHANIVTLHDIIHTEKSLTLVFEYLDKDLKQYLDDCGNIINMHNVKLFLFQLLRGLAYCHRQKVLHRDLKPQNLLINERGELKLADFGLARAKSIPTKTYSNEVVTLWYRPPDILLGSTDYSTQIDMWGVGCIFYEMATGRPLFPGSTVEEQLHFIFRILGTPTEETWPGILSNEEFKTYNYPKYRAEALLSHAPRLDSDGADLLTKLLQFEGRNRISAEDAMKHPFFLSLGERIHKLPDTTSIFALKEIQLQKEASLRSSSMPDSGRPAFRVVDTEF

[27] = biological target: Non-receptor tyrosine-protein kinase TYK2 (Homo sapiens) (UniProt P29597); test: Inhibition of TYK2 JH2 pseudokinase domain at 10 uM; settings: values are per cent of control
Non-receptor tyrosine-protein kinase TYK2 (Homo sapiens), sequence (P29597 whole entry, the tested form may be a part): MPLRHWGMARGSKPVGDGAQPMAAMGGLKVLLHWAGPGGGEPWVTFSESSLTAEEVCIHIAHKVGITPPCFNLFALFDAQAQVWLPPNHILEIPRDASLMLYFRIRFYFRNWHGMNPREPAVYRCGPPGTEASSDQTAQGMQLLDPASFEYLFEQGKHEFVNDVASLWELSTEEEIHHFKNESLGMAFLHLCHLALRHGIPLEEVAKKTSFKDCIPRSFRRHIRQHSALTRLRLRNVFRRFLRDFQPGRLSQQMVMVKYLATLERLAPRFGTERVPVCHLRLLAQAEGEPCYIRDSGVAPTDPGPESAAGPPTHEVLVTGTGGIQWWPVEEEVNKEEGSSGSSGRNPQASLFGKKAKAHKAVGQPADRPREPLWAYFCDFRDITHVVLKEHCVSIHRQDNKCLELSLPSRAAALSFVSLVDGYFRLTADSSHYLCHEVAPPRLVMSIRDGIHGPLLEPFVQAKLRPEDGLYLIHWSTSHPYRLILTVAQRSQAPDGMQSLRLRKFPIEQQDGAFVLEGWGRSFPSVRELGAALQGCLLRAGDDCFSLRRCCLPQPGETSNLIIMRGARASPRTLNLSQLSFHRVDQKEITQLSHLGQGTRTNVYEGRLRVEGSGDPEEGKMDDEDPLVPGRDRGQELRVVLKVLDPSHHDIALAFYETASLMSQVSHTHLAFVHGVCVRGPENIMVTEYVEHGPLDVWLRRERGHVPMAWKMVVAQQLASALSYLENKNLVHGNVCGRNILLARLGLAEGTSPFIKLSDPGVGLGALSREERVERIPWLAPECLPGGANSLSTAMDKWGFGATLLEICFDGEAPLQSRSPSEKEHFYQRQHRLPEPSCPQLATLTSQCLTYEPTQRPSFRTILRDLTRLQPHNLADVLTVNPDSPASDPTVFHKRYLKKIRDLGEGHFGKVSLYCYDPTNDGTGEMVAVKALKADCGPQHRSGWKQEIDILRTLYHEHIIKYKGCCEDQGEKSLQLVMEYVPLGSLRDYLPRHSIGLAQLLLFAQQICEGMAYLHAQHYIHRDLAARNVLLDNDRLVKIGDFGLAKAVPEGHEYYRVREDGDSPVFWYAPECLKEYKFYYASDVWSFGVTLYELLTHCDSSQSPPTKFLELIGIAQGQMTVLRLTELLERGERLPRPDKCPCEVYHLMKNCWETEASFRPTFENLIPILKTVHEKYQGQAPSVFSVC

[28] = biological target: Ephrin type-A receptor 1 (Homo sapiens) (UniProt P21709); test: Inhibition of EPHA1 at 10 uM; settings: values are per cent of control
[29] = biological target: Serine/threonine-protein kinase TBK1 (Homo sapiens) (UniProt Q9UHD2); test: Inhibition of TBK1 at 10 uM
[30] = biological target: Myosin light chain kinase, smooth muscle (Homo sapiens) (UniProt Q15746); test: Inhibition of MLCK at 10 uM; values are per cent of control
[31] = biological target: Serine/threonine-protein kinase STK11 (Homo sapiens) (UniProt Q15831); test: Inhibition of LKB1 at 10 uM; settings: values are per cent of control
[32] = biological target: Tyrosine-protein kinase FRK (Homo sapiens) (UniProt P42685); test: Inhibition of FRK at 10 uM; settings: values are per cent of control
[33] = biological target: Serine/threonine-protein kinase NIM1 (Homo sapiens) (UniProt Q8IY84); test: Inhibition of NIM1 at 10 uM
[34] = biological target: Serine/threonine-protein kinase 32B (Homo sapiens) (UniProt Q9NY57); test: Inhibition of YANK2 at 10 uM; settings: values are per cent of control
Serine/threonine-protein kinase 32B (Homo sapiens), sequence (Q9NY57 whole entry): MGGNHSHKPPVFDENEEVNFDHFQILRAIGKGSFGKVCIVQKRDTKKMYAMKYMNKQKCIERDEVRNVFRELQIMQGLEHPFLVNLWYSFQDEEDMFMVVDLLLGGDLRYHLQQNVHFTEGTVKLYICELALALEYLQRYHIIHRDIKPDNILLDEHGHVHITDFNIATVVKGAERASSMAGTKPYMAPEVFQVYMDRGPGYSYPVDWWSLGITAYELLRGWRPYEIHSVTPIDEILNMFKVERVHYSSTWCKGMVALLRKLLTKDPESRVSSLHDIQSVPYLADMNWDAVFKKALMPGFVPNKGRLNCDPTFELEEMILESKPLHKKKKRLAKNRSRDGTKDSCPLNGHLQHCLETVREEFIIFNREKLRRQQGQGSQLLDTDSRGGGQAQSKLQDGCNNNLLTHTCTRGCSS

[35] = biological target: Dual serine/threonine and tyrosine protein kinase (Homo sapiens) (UniProt Q6XUX3); test: Inhibition of RIPK5 at 10 uM
[36] = biological target: Ephrin type-B receptor 6 (Homo sapiens) (UniProt O15197); test: Inhibition of EPHB6 at 10 uM; settings: values are per cent of control
Ephrin type-B receptor 6 (Homo sapiens), sequence (O15197 whole entry): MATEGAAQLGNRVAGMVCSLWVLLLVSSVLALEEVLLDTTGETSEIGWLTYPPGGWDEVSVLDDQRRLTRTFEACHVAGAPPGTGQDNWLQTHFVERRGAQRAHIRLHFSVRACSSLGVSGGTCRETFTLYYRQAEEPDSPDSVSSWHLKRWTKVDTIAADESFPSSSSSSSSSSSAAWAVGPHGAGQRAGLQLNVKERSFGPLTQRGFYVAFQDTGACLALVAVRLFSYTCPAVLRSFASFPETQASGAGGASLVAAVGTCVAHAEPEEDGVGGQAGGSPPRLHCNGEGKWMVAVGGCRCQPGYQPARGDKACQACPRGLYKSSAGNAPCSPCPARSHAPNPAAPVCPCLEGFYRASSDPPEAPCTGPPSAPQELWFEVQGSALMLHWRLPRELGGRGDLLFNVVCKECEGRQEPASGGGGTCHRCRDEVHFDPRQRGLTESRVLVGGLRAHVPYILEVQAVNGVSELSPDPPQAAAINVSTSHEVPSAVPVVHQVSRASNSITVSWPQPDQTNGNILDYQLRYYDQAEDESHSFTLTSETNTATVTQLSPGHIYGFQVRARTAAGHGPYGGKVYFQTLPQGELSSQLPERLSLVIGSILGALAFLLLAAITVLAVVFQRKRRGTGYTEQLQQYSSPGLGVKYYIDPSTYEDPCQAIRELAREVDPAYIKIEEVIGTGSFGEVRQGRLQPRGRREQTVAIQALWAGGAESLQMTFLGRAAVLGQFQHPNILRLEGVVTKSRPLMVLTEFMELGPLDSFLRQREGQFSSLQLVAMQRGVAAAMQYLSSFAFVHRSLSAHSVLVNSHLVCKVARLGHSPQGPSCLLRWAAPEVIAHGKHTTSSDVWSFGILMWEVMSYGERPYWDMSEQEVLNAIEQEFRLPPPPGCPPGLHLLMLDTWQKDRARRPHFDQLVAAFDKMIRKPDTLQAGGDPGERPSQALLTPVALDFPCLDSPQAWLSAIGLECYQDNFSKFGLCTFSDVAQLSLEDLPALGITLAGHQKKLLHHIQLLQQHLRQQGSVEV

[37] = biological target: Receptor-interacting serine/threonine-protein kinase 2 (Homo sapiens) (UniProt O43353); test: Inhibition of RIPK2 at 10 uM; settings: values are per cent of control
[38] = system: Receptor-type tyrosine-protein kinase FLT3 (Homo sapiens), P36888 [D835H]; test: Inhibition of FLT3 D835H mutant at 10 uM; settings: values are per cent of control
[39] = biological target: Dual specificity tyrosine-phosphorylation-regulated kinase 2 (Homo sapiens) (UniProt Q92630); test: Inhibition of DYRK2 at 10 uM; settings: values are per cent of control
[40] = biological target: Tyrosine-protein kinase Srms (Homo sapiens) (UniProt Q9H3Y6); test: Inhibition of SRMS at 10 uM
[41] = biological target: cAMP-dependent protein kinase catalytic subunit beta (Homo sapiens) (UniProt P22694); test: Inhibition of PKAC-beta at 10 uM; settings: values are per cent of control
[42] = biological target: Fibroblast growth factor receptor 4 (Homo sapiens) (UniProt P22455); test: Inhibition of FGFR4 at 10 uM; settings: values are per cent of control
Fibroblast growth factor receptor 4 (Homo sapiens), sequence (P22455 22-802 limits assumed): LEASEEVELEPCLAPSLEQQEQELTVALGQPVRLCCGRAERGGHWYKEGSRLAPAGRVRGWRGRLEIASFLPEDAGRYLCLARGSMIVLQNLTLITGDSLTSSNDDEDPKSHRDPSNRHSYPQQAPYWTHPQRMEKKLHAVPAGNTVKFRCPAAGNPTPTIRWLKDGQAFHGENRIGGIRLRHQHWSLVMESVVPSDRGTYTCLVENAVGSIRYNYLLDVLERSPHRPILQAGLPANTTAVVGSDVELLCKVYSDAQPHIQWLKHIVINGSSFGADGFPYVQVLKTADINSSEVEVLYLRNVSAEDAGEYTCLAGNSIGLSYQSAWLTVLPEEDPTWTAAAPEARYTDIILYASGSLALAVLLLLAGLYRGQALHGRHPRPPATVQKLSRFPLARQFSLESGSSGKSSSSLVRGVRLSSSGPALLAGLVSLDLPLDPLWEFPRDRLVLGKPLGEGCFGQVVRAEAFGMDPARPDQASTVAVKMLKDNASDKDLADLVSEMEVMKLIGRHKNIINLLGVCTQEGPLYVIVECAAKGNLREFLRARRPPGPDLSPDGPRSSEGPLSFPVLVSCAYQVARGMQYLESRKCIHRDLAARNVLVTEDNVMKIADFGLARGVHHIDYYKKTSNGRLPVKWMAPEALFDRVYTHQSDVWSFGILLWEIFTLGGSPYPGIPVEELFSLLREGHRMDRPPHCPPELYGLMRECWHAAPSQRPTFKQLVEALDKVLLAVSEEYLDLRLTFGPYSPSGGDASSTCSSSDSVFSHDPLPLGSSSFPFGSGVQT

Compound: CCN1CCN(Cc2ccc(NC(=O)c3ccc(C)c(C#Cc4cccnc4)c3)cc2C(F)(F)F)CC1
- residual binding, % of control [1]: 0%
- residual binding, % of control [2]: 11%
- inhibition [3]: 93%
- inhibition [4]: 88%
- inhibition [5]: 0.25%
- inhibition [6]: 1.6%
- residual binding, % of control [7]: 0.5%
- inhibition [8]: 90%
- residual binding, % of control [9]: 100%
- residual binding, % of control [10]: 100%
- residual binding, % of control [11]: 8.8%
- level, % of control [12]: 20%
- level, % of control [13]: 0.35%
- inhibition [14]: 81%
- inhibition [15]: 1.3%
- inhibition [16]: 9.1%
- inhibition [17]: 79%
- level, % of control [18]: 0.05%
- residual binding, % of control [19]: 0.05%
- residual binding, % of control [20]: 1.6%
- level, % of control [21]: 90%
- inhibition [22]: 100%
- level, % of control [23]: 44%
- level, % of control [24]: 2.4%
- inhibition [25]: 8.2%
- residual binding, % of control [26]: 8.4%
- residual binding, % of control [27]: 99%
- residual binding, % of control [28]: 1.2%
- inhibition [29]: 100%
- % of control [30]: 60%
- residual binding, % of control [31]: 96%
- residual binding, % of control [32]: 0.15%
- inhibition [33]: 97%
- residual binding, % of control [34]: 100%
- inhibition [35]: 27%
- residual binding, % of control [36]: 8.8%
- residual binding, % of control [37]: 0.45%
- residual binding, % of control [38]: 0.15%
- residual binding, % of control [39]: 48%
- inhibition [40]: 0%
- residual binding, % of control [41]: 4.1%
- residual binding, % of control [42]: 0%

Compound: CCN1CCN(Cc2ccc(NC(=O)c3ccc(C)c(C#Cc4cnc5[nH]ccc5c4)c3)cc2C(F)(F)F)CC1
- residual binding, % of control [1]: 0%
- residual binding, % of control [2]: 0.35%
- inhibition [3]: 93%
- inhibition [4]: 97%
- inhibition [5]: 1.2%
- inhibition [6]: 0.8%
- residual binding, % of control [7]: 0.85%
- inhibition [8]: 100%
- residual binding, % of control [9]: 100%
- residual binding, % of control [10]: 97%
- residual binding, % of control [11]: 8.8%
- level, % of control [12]: 3.4%
- level, % of control [13]: 0.25%
- inhibition [14]: 82%
- inhibition [15]: 1.4%
- inhibition [16]: 18%
- inhibition [17]: 10%
- level, % of control [18]: 0%
- residual binding, % of control [19]: 0%
- residual binding, % of control [20]: 0%
- level, % of control [21]: 74%
- inhibition [22]: 100%
- level, % of control [23]: 2.2%
- level, % of control [24]: 0.15%
- inhibition [25]: 13%
- residual binding, % of control [26]: 46%
- residual binding, % of control [27]: 96%
- residual binding, % of control [28]: 0.6%
- inhibition [29]: 84%
- % of control [30]: 18%
- residual binding, % of control [31]: 60%
- residual binding, % of control [32]: 0.15%
- inhibition [33]: 98%
- residual binding, % of control [34]: 100%
- inhibition [35]: 8.2%
- residual binding, % of control [36]: 0.85%
- residual binding, % of control [37]: 0.3%
- residual binding, % of control [38]: 0.35%
- residual binding, % of control [39]: 51%
- inhibition [40]: 0.2%
- residual binding, % of control [41]: 11%
- residual binding, % of control [42]: 0%

Reference: ChEMBL document CHEMBL1177794, “Broad spectrum alkynyl inhibitors of T315I Bcr-Abl” (Bioorg Med Chem Lett, 2010)
